Experimental data: doi:10.1101/2025.04.10.648262, “Time-resolved phenotyping at subcellular resolution reveals shared principles and key trade-offs across antimicrobial peptide activities” (bioRxiv, 2026)
Bridge positions count the residues as written; N and C are the ends. Square brackets hold non-standard residues; d marks the D form. Peptide text beside a SMILES is read from it. Nspe = C[C@H](NCC(=O)O)c1ccccc1; Nlys = NCCCCNCC(=O)O

Tests used:
E. coli strain (CJW7845) = assay: Time-lapse single-cell phenotyping of inner/outer membrane permeabilization to proteins and growth arrest in microwells; format: cell-based, Escherichia coli; design: key to Class (timing of growth arrest relative to IM permeabilization to proteins): Class I AMPs and PMs cause growth arrest predominantly associated with inner membrane (IM) permeabilization; class II compounds inhibit growth without substantial IM permeabilization; settings: for Class (timing of growth arrest relative to IM permeabilization to proteins) / Type (relative timing of OM and IM permeabilization) / OM-permeabilized cells among IM-permeabilized cells: 2X MIC; for Class (timing of growth arrest relative to IM permeabilization to proteins) / Type (relative timing of OM and IM permeabilization): CJW7845, M9gluCAAT, 37°C, time-lapse microscopy; for OM-permeabilized cells among IM-permeabilized cells: CJW7845, during the experiment; for OM-permeabilized cells (out of all IM-permeabilized cells): 10X MIC, CJW7845
Procedure: For experiments with PDMS microwells, cells were allowed to grow for ~30 min in the temperature-controlled enclosure prior to imaging. A 10X concentrated AMP solution was spiked in (at 1/10 the volume of the well) and mixed well by pipetting after ~20 min from the start of the image acquisition, without interrupting the timelapse sequence. When the uptake of SYTOX Green was monitored, SYTOX Green was included in the AMP solution and spiked in during the experiment to obtain a final concentration of SYTOX Green of 50 nM in the well. This allowed us to monitor healthy cell growth prior to AMP treatment, to rapidly set the desired AMP (or SYTOX Green) concentration from one frame to the next (unlike for flow-controlled injection systems), and to resolve the AMP-induced phenotype in real time. The current design allows for testing up to four independent conditions in parallel.
To analyse the single-cell experiments in microwells, OmniSegger software (https://github.com/tlo-bot/omnisegger), which combines SuperSegger MATLAB-based suite ([Stylianidou et al., 2016]) for cell analysis with Omnipose segmentation ([Cutler et al., 2022]), was used to first process the microscopy images by performing drift correction, cell segmentation, and cell linking. Given that AMP-treated cells can display extreme phenotypes, such as exceedingly bright and/or heterogeneous phase contrast signal (likely a result of the widely changing intracellular density upon AMP treatment) and that the software’s pre-trained model bact_phase_omni ([Cutler et al, 2022]) tended to split cells before cell division was completed, a new Omnipose model was trained from scratch starting from bact_phase_omni-generated masks that were further corrected and curated using custom-made Python scripts (screening_good_bad.py and generate_training_dataset.py). Details on the Omnipose model retraining can be found in a previous publication ([Thappeta et al., 2025]). The final model (omnipose_phase_microwells_model) and corresponding training datasets are available at https://github.com/JacobsWagnerLab/published/tree/master/Fragasso_et_al_2025 and BioImage Archive (accession number: S-BIAD1823), respectively.
MATLAB files of the linked cell trajectories output from OmniSegger were then imported, background subtracted using background_subtraction.py, which was adapted from a previous study ([Papagiannakis et al., 2025]), and converted to Python data structures (import_processing_code.py), from which cell features such as cell area, nucleoid area, mean fluorescence intensity, etc., were extracted for each cell at each frame. The exported dataframes were further processed to estimate instantaneous growth rates and were run through a series of functions to perform curation based on cell areas and instantaneous growth rates over time (post_processing_curation_functions.py). […] Represented data points were pooled from multiple replicates.
Analysis of strain CJW7845 proceeded by extracting the timings of permeabilization of the outer and inner membranes based on the mean fluorescence intensities of mScarlet-I and/or mTagBFP2 fluorescent proteins (using function get_permeabilization_time.py), cell growth arrest, and the initiation time of growth inhibition. To obtain accurate timings underlying membrane permeabilization events, information from both the signal intensity itself as well as its derivative were combined, which enabled us to accurately resolve the relevant changes in fluorescent protein signal beyond the intrinsic high-frequency noise and low-frequency photobleaching. Inner membrane permeabilization to proteins can result in two possible phenotypes when simultaneously monitoring freely diffusing periplasmic and cytoplasmic probes, depending on which membrane (outer or inner) becomes permeabilized first. When the outer membrane is first permeabilized, mScarlet-I signal is lost first, followed by mTagBFP2 when the inner membrane becomes also permeabilized. […]

E. coli ATCC 25922 = format: cell-based, Escherichia coli; settings: E. coli ATCC 25922, M9gluCAAT, 37°C, 20 h; mode across four biological replicates
Procedure: Strain ATCC 25922GFP (ATCC, Virginia, USA), which carries a GFP-expressing plasmid, was selected for biofilm experiments. The strain’s ability to form biofilms was first verified at 37°C using Congo Red staining on agar plate containing M9gluCAAT. Congo Red dye binds curli, a major component of the biofilm extracellular matrix. Strain ATCC 25922 (lacking the GFP-expressing plasmid) was used for MIC determination (to avoid interference from the presence of ampicillin required to maintain the plasmid) following the standard growth protocol described above.
To determine the minimal inhibitory concentration (MIC) of the selected AMPs against either MG1655 or ATCC 25922 E. coli strains, exponentially growing cells were diluted in fresh medium to an OD = 10^−6 (~500 cells/mL) and mixed 50:50 with titrated AMP concentrations (which were chosen to be over a range that included the MIC) in a 96-well plate (flat bottom with low evaporation lid, 3595, Corning, Arizona, USA). A final OD of 5 × 10^−7 corresponds to ~250 cells/mL. OD curves were sampled every 5 min for a total of 48 h using a microplate reader (BioTek Synergy 2, Agilent Technologies Inc., California, USA). Raw data were exported as a text file and analysed using a custom-written Python script (microplate_reader_analysis.py). To measure maximum growth rates, the log(OD) was fitted using a linear regression over a 12-point moving window (60 min), which provides the instantaneous growth rate (log(OD)/h), from which the global maximum was computed. The MIC was defined as the minimum AMP concentration for which the maximum growth rate was < 0.2 log(OD)/h within the first 20 h of incubation. Each MIC experiment was performed independently at least three times (with at least two technical replicates each), and the mode across all replicates was taken as the final MIC; in the rare cases of a tie, an additional replicate was performed, which was sufficient to resolve it.

| Structure (SMILES) | Class (timing of growth arrest relative to IM permeabilization to proteins) (E. coli strain (CJW7845)) | Type (relative timing of OM and IM permeabilization) (E. coli strain (CJW7845)) | OM-permeabilized cells among IM-permeabilized cells (E. coli strain (CJW7845)) | OM-permeabilized cells (out of all IM-permeabilized cells) (E. coli strain (CJW7845)) | MIC (mode MIC) (E. coli ATCC 25922) [µM] | Cells in which the IM became permeabilized (E. coli strain (CJW7845); concentrations close to the MIC (2X MIC)) [%] |
| --- | --- | --- | --- | --- | --- | --- |
| C[C@@H](c1ccccc1)N(CC(N)=O)C(=O)CN(C(=O)CN(CCCCN)C(=O)CN(C(=O)CN(C(=O)CN(CCCCN)C(=O)CN(C(=O)CN(C(=O)CN(CCCCN)C(=O)CN(C(=O)CN(C(=O)CNCCCCN)[C@@H](C)c1ccccc1)[C@@H](C)c1ccccc1)[C@@H](C)c1ccccc1)[C@@H](C)c1ccccc1)[C@@H](C)c1ccccc1)[C@@H](C)c1ccccc1)[C@@H](C)c1ccccc1 [TM1] (H-[Nlys][Nspe][Nspe][Nlys][Nspe][Nspe][Nlys][Nspe][Nspe][Nlys][Nspe][Nspe]-NH2) | I | B (type B AMPs and PMs permeabilize the IM well before (>10 min) the OM) | 24/97 | 77/171 | – | – |
| CC[C@H](C)[C@@H]1NC(=O)CNC(=O)[C@H](CCCNC(=N)N)NC(=O)[C@H](Cc2ccc(O)cc2)NC(=O)[C@@H]2CSSC[C@H](NC1=O)C(=O)N[C@@H](Cc1ccc(O)cc1)C(=O)N[C@@H](CCCNC(=N)N)C(=O)N[C@@H](CCCNC(=N)N)C(=O)N[C@H](C(=O)N[C@@H](CCCNC(=N)N)C(N)=O)CSSC[C@H](NC(=O)[C@H](Cc1c[nH]c3ccccc13)NC(=O)[C@@H](N)CCCCN)C(=O)N[C@@H](Cc1ccccc1)C(=O)N[C@@H](CCCNC(=N)N)C(=O)N[C@@H](C(C)C)C(=O)N2 [Tac1, tachyplesin-1] (H-KWCFRVCYRGICYRRCR-NH2; disulfide 3-16, 7-12 (inferred); N-terminus assumed) | I | A (type A AMPs predominantly permeabilize the outer membrane (OM) within 10 min of the IM) | 273/273 | 82/128 | 1.2 | – |
| CC[C@@H](C)[C@@H](NC(=O)[C@@H](C)NC(=O)[C@@H](CCCNC(=N)N)NC(=O)[C@@H](Cc1c[nH]c2ccccc12)NC(=O)[C@@H](CCC(N)=O)NC(=O)[C@H](N)C(C)C)C(=O)N[C@H](CCCNC(=N)N)C(=O)N[C@@H](C(=O)N[C@H](CCCNC(=N)N)C(=O)N[C@@H](C(=O)N[C@@H](C(=O)N[C@H](CCCNC(=N)N)C(N)=O)[C@H](C)CC)C(C)C)C(C)C [DJK-5] (H-[dV][dQ][dW][dR][dA][dI][dR][dV][dR][dV][dI][dR]-NH2; N-terminus and C-terminus assumed) | II | B (type B AMPs and PMs permeabilize the IM well before (>10 min) the OM) | 81/151 | – | – | > 60 |
